From patent US9834542B2, “LXR modulators” (BRISTOL-MYERS SQUIBB COMPANY, priority 2013, dated 2017)

Target: T1, LXRβ (Homo sapiens, UniProt P55055)
T1 construct: Co-transfection expression plasmids, comprising full-length LXRα (pCMX-h LXRα[…] or LXRβ (pCMX-hLXRβ)); expressed in transfected cells; host or cells: CV-1 African Green Monkey Kidney Cells
T1 sequence (P55055 1-460): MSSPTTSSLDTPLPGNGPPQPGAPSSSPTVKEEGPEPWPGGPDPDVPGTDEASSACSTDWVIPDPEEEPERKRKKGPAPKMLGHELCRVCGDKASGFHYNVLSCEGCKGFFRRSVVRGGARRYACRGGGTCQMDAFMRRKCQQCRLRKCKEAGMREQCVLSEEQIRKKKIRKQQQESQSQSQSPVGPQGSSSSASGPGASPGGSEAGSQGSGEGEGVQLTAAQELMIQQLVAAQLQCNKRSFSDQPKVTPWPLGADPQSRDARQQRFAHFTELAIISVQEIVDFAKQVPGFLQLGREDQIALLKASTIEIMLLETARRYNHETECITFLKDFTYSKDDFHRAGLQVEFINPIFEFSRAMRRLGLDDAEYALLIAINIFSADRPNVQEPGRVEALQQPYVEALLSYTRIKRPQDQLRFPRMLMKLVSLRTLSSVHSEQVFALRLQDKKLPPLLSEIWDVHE
T1 sequence (P19793 1-462 partner): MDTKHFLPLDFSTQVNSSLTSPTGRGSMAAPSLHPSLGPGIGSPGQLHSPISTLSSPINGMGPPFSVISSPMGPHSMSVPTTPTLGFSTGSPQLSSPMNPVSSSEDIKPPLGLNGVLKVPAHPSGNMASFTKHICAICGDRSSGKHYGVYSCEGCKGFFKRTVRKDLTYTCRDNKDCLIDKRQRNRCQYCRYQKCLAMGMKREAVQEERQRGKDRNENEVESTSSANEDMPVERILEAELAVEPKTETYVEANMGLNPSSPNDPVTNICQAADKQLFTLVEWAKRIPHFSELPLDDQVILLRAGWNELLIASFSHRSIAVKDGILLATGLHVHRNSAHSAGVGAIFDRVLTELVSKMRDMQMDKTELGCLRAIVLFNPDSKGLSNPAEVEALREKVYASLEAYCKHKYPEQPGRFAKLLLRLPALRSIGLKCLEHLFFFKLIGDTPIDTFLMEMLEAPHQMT
Experiment: Co-transfection assay (LXRE luciferase reporter), LXRβ
Format: cell-based
Conditions: for EC50: CV-1 cells transfected with pCMX-hLXRβ and LXREx1-Tk-Luciferase, 20 hours incubation; for Emax: LXRβ co-transfection, relative to high control 1-(2,4-difluorobenzyl)-2-oxo-6-(4-phenoxyphenyl)-4-(trifluoromethyl)-1,2-dihydropyridine-3-carbonitrile, read-out: % Efficacy
Outline: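 Luciferase output from an LXRE-Tk reporter measured after 20 h, 37 °C compound exposure of transiently transfected CV-1 cells expressing human LXRβ with endogenous RXR. EC50 fitted from 11-point half-log dose responses (mean of ≥2 runs); % efficacy versus maximal response of the reference agonist.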

EC50 [nM]	Emax [%]	Structure (SMILES)
47	90	Cc1nc(-c2cc(-c3cc(F)c(CO)c(S(C)(=O)=O)c3)ccc2-n2cc(C(F)(F)F)nc2C)c(-c2ccc3c(c2)OC(F)(F)O3)o1 [Example 494, (3′-(5-(2,2-difluorobenzo[d][1,3]dioxol-5-yl)-2-methyloxazol-4-yl)-3-fluoro-4′-(2-methyl-4-(trifluoromethyl)-1H-imidazol-1-yl)-5-(methylsulfonyl)biphenyl-4-yl)methanol]
71	108	Cc1nc(-c2cc(-c3cccc(S(C)(=O)=O)c3)ccc2-n2cc(C(F)(F)F)nc2C)c(-c2ccc(OC(F)F)cc2)o1 [Example 495, 5-(4-(difluoromethoxy)phenyl)-2-methyl-4-(4-(2-methyl-4-(trifluoromethyl)-1H-imidazol-1-yl)-3′-(methylsulfonyl)biphenyl-3-yl)oxazole]
48	116	Cc1nc(-c2cc(-c3cc(F)c(CO)c(S(C)(=O)=O)c3)ccc2-n2cc(C(F)(F)F)nc2C)c(-c2ccc(OC(F)F)cc2)o1 [Example 496, (3′-(5-(4-(difluoromethoxy)phenyl)-2-methyloxazol-4-yl)-3-fluoro-4′-(2-methyl-4-(trifluoromethyl)-1H-imidazol-1-yl)-5-(methylsulfonyl)biphenyl-4-yl)methanol]
88	124	Cc1nc(-c2cc(-c3ccc(CO)c(S(C)(=O)=O)c3)ccc2-n2cc(C(F)(F)F)nc2C)c(-c2ccc(OC(F)F)cc2)o1 [Example 497, (3′-(5-(4-(difluoromethoxy)phenyl)-2-methyloxazol-4-yl)-4′-(2-methyl-4-(trifluoromethyl)-1H-imidazol-1-yl)-3-(methylsulfonyl)biphenyl-4-yl)methanol]
87	76	Cc1nc(-c2cc(-c3cccc(S(C)(=O)=O)c3)ccc2-n2cc(C(F)(F)F)nc2C)c(-c2ccc(Cl)c(F)c2)o1 [Example 498, 5-(4-chloro-3-fluorophenyl)-2-methyl-4-(4-(2-methyl-4-(trifluoromethyl)-1H-imidazol-1-yl)-3′-(methylsulfonyl)biphenyl-3-yl)oxazole]
50	74	Cc1nc(-c2cc(-c3cc(F)c(CO)c(S(C)(=O)=O)c3)ccc2-n2cc(C(F)(F)F)nc2C)c(-c2ccc(Cl)c(F)c2)o1 [Example 499, (3′-(5-(4-chloro-3-fluorophenyl)-2-methyloxazol-4-yl)-3-fluoro-4′-(2-methyl-4-(trifluoromethyl)-1H-imidazol-1-yl)-5-(methylsulfonyl)biphenyl-4-yl)methanol]
85	96	Cc1nc(-c2cc(-c3cccc(S(C)(=O)=O)c3)ccc2-n2cc(C(F)(F)F)nc2C)c(-c2ccc(N(C)C)cc2)o1 [Example 500, N,N-dimethyl-4-(2-methyl-4-(4-(2-methyl-4-(trifluoromethyl)-1H-imidazol-1-yl)-3′-(methylsulfonyl)biphenyl-3-yl)oxazol-5-yl)aniline]
1620	38	Cc1nc(-c2cc(-c3cc(F)c(CO)c(S(C)(=O)=O)c3)ccc2-n2cc(C(F)(F)F)nc2C)c(-c2ccc(N3CCCC3=O)cc2)o1 [Example 501]
1250	37	Cc1nc(-c2cc(-c3cccc(S(C)(=O)=O)c3)ccc2-n2cc(C(F)(F)F)nc2C)c(-c2ccc(N3CCCC3=O)cc2)o1 [Example 502, 1-(4-(2-methyl-4-(4-(2-methyl-4-(trifluoromethyl)-1H-imidazol-1-yl)-3′-(methylsulfonyl)biphenyl-3-yl)oxazol-5-yl)phenyl)pyrrolidin-2-one]
45	71	Cc1nc(-c2cc(-c3cc(F)c(CO)c(S(C)(=O)=O)c3)ccc2-n2cc(C(F)(F)F)nc2C)c(-c2ccc(C)c(F)c2)o1 [Example 503, (3-fluoro-3′-(5-(3-fluoro-4-methylphenyl)-2-methyloxazol-4-yl)-4′-(2-methyl-4-(trifluoromethyl)-1H-imidazol-1-yl)-5-(methylsulfonyl)biphenyl-4-yl)methanol]
91	77	Cc1nc(-c2cc(-c3cccc(S(C)(=O)=O)c3)ccc2-n2cc(C(F)(F)F)nc2C)c(-c2ccc(C)c(F)c2)o1 [Example 504, 5-(3-fluoro-4-methylphenyl)-2-methyl-4-(4-(2-methyl-4-(trifluoromethyl)-1H-imidazol-1-yl)-3′-(methylsulfonyl)biphenyl-3-yl)oxazole]
144	87	Cc1nc(-c2cc(-c3cccc(S(C)(=O)=O)c3)ccc2-n2cc(C(F)(F)F)nc2C)c(-c2ccc(F)cc2)o1 [Example 505, 5-(4-fluorophenyl)-2-methyl-4-(4-(2-methyl-4-(trifluoromethyl)-1H-imidazol-1-yl)-3′-(methylsulfonyl)biphenyl-3-yl)oxazole]
349	77	Cc1nc(-c2cc(-c3cccc(S(C)(=O)=O)c3)ccc2-n2cc(C(F)(F)F)nc2C)c(-c2ccc(F)c(C#N)c2)o1 [Example 506, 2-fluoro-5-(2-methyl-4-(4-(2-methyl-4-(trifluoromethyl)-1H-imidazol-1-yl)-3′-(methylsulfonyl)biphenyl-3-yl)oxazol-5-yl)benzonitrile]
35	62	Cc1nc(-c2cc(-c3cc(F)c(CO)c(S(C)(=O)=O)c3)ccc2-n2cc(C(F)(F)F)nc2C)c(-c2ccc(Cl)c(Cl)c2)o1 [Example 507, (3′-(5-(3,4-dichlorophenyl)-2-methyloxazol-4-yl)-3-fluoro-4′-(2-methyl-4-(trifluoromethyl)-1H-imidazol-1-yl)-5-(methylsulfonyl)biphenyl-4-yl)methanol]
82	68	Cc1nc(-c2cc(-c3cccc(S(C)(=O)=O)c3)ccc2-n2cc(C(F)(F)F)nc2C)c(-c2ccc(Cl)c(Cl)c2)o1 [Example 508, 5-(3,4-dichlorophenyl)-2-methyl-4-(4-(2-methyl-4-(trifluoromethyl)-1H-imidazol-1-yl)-3′-(methylsulfonyl)biphenyl-3-yl)oxazole]
58	70	Cc1nc(-c2cc(-c3cc(F)c(CO)c(S(C)(=O)=O)c3)ccc2-n2cc(C(F)(F)F)nc2C)c(-c2ccc(F)c(Cl)c2)o1 [Example 509, (3′-(5-(3-chloro-4-fluorophenyl)-2-methyloxazol-4-yl)-3-fluoro-4′-(2-methyl-4-(trifluoromethyl)-1H-imidazol-1-yl)-5-(methylsulfonyl)biphenyl-4-yl)methanol]
61	76	Cc1nc(-c2cc(-c3cccc(S(C)(=O)=O)c3)ccc2-n2cc(C(F)(F)F)nc2C)c(-c2ccc(F)c(Cl)c2)o1 [Example 510, 5-(3-chloro-4-fluorophenyl)-2-methyl-4-(4-(2-methyl-4-(trifluoromethyl)-1H-imidazol-1-yl)-3′-(methylsulfonyl)biphenyl-3-yl)oxazole]
115	79	Cc1nc(-c2cc(-c3cccc(S(C)(=O)=O)c3)ccc2-n2cc(C(F)(F)F)nc2C)c(-c2ccc(F)c(F)c2)o1 [Example 511, 5-(3,4-difluorophenyl)-2-methyl-4-(4-(2-methyl-4-(trifluoromethyl)-1H-imidazol-1-yl)-3′-(methylsulfonyl)biphenyl-3-yl)oxazole]
